Biological target: ATP-binding cassette sub-family C member 2 (Homo sapiens, UniProt Q92887)
Test: TP_TRANSPORTER: ATP hydrolysis in MRP2 reconstituted into proteoliposome
Type: functional, subcellular

Sequence of ATP-binding cassette sub-family C member 2 (Q92887 whole entry): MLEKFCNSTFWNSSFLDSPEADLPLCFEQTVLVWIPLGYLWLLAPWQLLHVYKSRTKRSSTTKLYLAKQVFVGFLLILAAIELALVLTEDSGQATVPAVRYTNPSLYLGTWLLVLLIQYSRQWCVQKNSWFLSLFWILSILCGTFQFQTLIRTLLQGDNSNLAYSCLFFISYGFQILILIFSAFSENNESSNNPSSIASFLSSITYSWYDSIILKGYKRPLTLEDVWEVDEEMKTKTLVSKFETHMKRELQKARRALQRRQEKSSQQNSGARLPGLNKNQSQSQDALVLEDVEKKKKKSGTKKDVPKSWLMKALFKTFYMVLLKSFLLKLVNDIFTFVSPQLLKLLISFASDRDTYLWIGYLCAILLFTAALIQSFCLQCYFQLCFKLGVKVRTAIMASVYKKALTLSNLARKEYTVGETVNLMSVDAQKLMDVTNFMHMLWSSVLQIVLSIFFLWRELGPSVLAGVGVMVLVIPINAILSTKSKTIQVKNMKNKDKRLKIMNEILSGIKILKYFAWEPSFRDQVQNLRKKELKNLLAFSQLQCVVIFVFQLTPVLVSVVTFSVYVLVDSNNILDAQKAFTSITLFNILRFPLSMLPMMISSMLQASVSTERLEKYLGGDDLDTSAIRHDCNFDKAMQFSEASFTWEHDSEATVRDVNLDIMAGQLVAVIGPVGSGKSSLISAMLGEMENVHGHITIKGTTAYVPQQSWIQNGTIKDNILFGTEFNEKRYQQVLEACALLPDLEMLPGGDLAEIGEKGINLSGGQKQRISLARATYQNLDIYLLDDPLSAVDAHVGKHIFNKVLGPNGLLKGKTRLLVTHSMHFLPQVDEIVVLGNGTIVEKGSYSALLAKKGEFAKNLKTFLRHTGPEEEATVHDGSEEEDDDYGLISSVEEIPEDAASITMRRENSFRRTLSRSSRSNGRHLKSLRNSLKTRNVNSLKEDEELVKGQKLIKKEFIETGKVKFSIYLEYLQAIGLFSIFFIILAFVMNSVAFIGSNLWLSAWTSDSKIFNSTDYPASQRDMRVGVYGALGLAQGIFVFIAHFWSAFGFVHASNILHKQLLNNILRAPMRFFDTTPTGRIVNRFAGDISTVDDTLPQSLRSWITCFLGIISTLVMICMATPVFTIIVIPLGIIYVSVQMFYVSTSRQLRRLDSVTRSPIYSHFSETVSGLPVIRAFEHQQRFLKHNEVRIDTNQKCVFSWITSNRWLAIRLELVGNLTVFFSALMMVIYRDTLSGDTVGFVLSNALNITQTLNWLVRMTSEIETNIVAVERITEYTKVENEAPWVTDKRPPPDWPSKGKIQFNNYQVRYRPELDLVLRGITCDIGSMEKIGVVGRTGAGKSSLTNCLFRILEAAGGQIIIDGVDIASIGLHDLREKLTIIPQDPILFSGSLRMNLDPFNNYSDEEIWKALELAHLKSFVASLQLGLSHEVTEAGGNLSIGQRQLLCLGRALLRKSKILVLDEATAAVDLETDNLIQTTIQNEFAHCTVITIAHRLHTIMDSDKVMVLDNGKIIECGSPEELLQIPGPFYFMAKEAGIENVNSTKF

Q: Which Activity does the source give for `CCCCCCCCCCSC[C@H](NC(=O)CC[C@H](N)C(=O)O)C(=O)NCC(=O)O` here?
A: substrate [+]

Q: How did the Activity turn out when `N[C@@H](CCC(=O)N[C@@H](CS)C(=O)NCC(=O)O)C(=O)O` [GLUTATHIONE] was run?
A: substrate [+]

From ChEMBL document CHEMBL2074183, “Purification of the human apical conjugate export pump MRP2 reconstitution and functional characterization as substrate-stimulated ATPase” (Eur J Biochem, 1999)
